Data set [1] deals with Human immunodeficiency virus 1. Nature of the data set: Antiviral activity against HIV1 NL4-3 infected in HEK293 cells assessed as inhibition of virus replication after 72 hrs. Format: functional, organism-based. The following applies: Human immunodeficiency virus 1, NL4-3, HEK293, 72 h.
The test system of data set [2] is Human immunodeficiency virus 1. The experiment in a line: Antiviral activity against HIV1 subtype A isolate 1 infected in HEK293 cells assessed as inhibition of virus replication after 72 hrs. Format: functional, organism-based. The conditions noted are these: Human immunodeficiency virus 1, HEK293, 72 h.
In data set [3] the test system is Human immunodeficiency virus 1. The experiment in a line: Antiviral activity against HIV1 subtype A isolate 2 infected in HEK293 cells assessed as inhibition of virus replication after 72 hrs. Type of data set: functional, organism-based. The conditions noted are these: Human immunodeficiency virus 1, subtype A isolate 2, HEK293, 72 h.
In data set [4] the test system is Human immunodeficiency virus 1. Nature of the data set: Antiviral activity against HIV1 subtype B isolate 3 infected in HEK293 cells assessed as inhibition of virus replication after 72 hrs. Format: functional, organism-based. The conditions noted are these: Human immunodeficiency virus 1, subtype B isolate 3, HEK293, 72 h.
For data set [5], the system named is Human immunodeficiency virus 1. The experiment in a line: Antiviral activity against HIV1 subtype B isolate 4 infected in HEK293 cells assessed as inhibition of virus replication after 72 hrs. Type of data set: functional, organism-based. The following applies: Human immunodeficiency virus 1, HEK293, 72 h.
For data set [6], the system named is Human immunodeficiency virus 1. The experiment in a line: Antiviral activity against HIV1 subtype BF isolate 5 infected in HEK293 cells assessed as inhibition of virus replication after 72 hrs. The conditions noted are these: Human immunodeficiency virus 1, subtype BF isolate 5, HEK293, 72 h. Type of data set: functional, organism-based.
Data set [7] concerns Human immunodeficiency virus 1. Nature of the data set: Antiviral activity against HIV1 subtype C isolate 6 infected in HEK293 cells assessed as inhibition of virus replication after 72 hrs. Type of data set: functional, organism-based. The following applies: Human immunodeficiency virus 1, HEK293, 72 h.
Data set [8] deals with Human immunodeficiency virus 1. Nature of the data set: Antiviral activity against HIV1 subtype C isolate 7 infected in HEK293 cells assessed as inhibition of virus replication after 72 hrs. Type of data set: functional, organism-based. The following applies: Human immunodeficiency virus 1, subtype C isolate 7, HEK293, 72 h.
In data set [9] the test system is Human immunodeficiency virus 1. The experiment in a line: Antiviral activity against HIV1 subtype D isolate 8 infected in HEK293 cells assessed as inhibition of virus replication after 72 hrs. The following applies: Human immunodeficiency virus 1, subtype D isolate 8, HEK293, 72 h. Type of data set: functional, organism-based.
Data set [10] deals with Human immunodeficiency virus 1. Nature of the data set: Antiviral activity against HIV1 expressing reverse transcriptase D67N/K70R/T215F/K219E/M184V mutant infected in HEK293 cells assessed as inhibition of virus replication after 72 hrs. Type of data set: functional, organism-based. The following applies: Human immunodeficiency virus 1, HEK293, 72 h.
The subject of data set [11] is Human immunodeficiency virus 1. Nature of the data set: Antiviral activity against HIV1 expressing reverse transcriptase K103N/Y181C/G190A mutant infected in HEK293 cells assessed as inhibition of virus replication after 72 hrs. Format: functional, organism-based. The conditions noted are these: Human immunodeficiency virus 1, HEK293, 72 h.
Data set [12] has as its system HEK293. Nature of the data set: Cytotoxicity against human HEK293 cells at 600 uM. Type of data set: cell-based. The conditions noted are these: hek293, 600 µM.
In data set [13] the test system is HEK293. The experiment in a line: Cytotoxicity against human HEK293 cells at 2000 uM. Type of data set: cell-based. The following applies: hek293, 2000 µM.
Data set [14] can be described thus: Cmax in human at 600 mg. Type of data set: ADME, organism-based. The arrangement: dose 600 mg. The following applies: in vivo.
In data set [15] the test system is HEK293. The experiment in a line: Cytotoxicity against human HEK293 cells at 100 uM. Format: cell-based. The conditions noted are these: hek293, 100 µM.

In the case of `Nc1ccn([C@@H]2CS[C@H](CO)O2)c(=O)n1` [LAMIVUDINE], the concentration for a half-maximal effect (EC50) in data set [1] came out at 4.68 µM; in data set [2] it was 3.54 µM; in [3], 4.48 µM; in data set [4] it was 4.78 µM; in [5], 5.43 µM; in data set [6], 4.24 µM. Moreover, the EC50 in [7] was 3.9 µM; in data set [8] it was 4.06 µM; in data set [9] it was 3.25 µM; in data set [10], greater than 300 µM; in data set [11] it was 7.16 µM.
Regarding `Cc1cn([C@@H]2C[C@@H](O)[C@H](CO)O2)c(=O)[nH]c1=O` [TELBIVUDINE], the Activity result with HEK293 [12] and in the data set with HEK293 [13] was “Non-toxic” in each case. The half-maximal effective concentration (EC50) in data set [1], in [2], in data set [3], in data set [4], in [5] and in data set [6] was greater than 600 µM throughout. For the same compound, the EC50 in [7], in data set [8], in [9], in data set [10] and in [11] was greater than 600 µM in each case. In data set [14], the peak level (Cmax) was 13.2 µM.
Consider `C=C1[C@H](CO)[C@@H](O)C[C@@H]1n1cnc2c(=O)[nH]c(N)nc21.O` [ENTECAVIR], for which, in the data set with HEK293 [15], the Activity entry is recorded as “Non-toxic”. Besides, the concentration giving a half-maximal response (EC50) in data set [1] amounted to 12.6 µM; in data set [2], 12.5 µM; in [3], 13.2 µM; in data set [4] it was 15.1 µM; in data set [5] it was 13.5 µM; in data set [6] it was 13.6 µM. For the same compound, the concentration giving a half-maximal response (EC50) was 9.51 µM in data set [7]; 9.95 µM in data set [8]; 7.62 µM in data set [9]; greater than 100 µM in [10]; 11.7 µM in data set [11].

As a reminder, the EC50 is the midpoint of the concentration-response curve. In general, Cmax refers to the peak of the concentration-time curve.

For the origin of these results see ChEMBL document CHEMBL1255476, “Telbivudine exhibits no inhibitory activity against HIV-1 clinical isolates in vitro” (Antimicrob Agents Chemother, 2010).
